# Results taken from patent US7595401B2, “Therapeutic compounds and their use in cancer” (Myriad Pharmaceuticals, Inc., priority 2006, dated 2009).
# Tested on: Luciferase refolding
# Assay: Luciferase refolding assay
# Type: biochemical
# Design: key: *Compound is active in Luciferase refolding assay
# Details: compound fluorescent in FP binding assay
row,SMILES,active in Luciferase refolding assay (asterisk footnote)
1,"COc1ccc(OC)c(Sc2nc3c(N)ncnc3n2CCC(NC(=O)OC(C)(C)C)C2CC2)c1 (centres unmarked) [Example 664, tert-Butyl(3-{6-amino-8-[(2,5-dimethoxyphenyl)thio]-9H-purin-9-yl}-1-cyclopropylpropyl)carbamate]",*Fluorescent
2,"CC(C)NC(=O)NC(CCn1c(Sc2cc3c(cc2Br)OCO3)nc2c(N)ncnc21)C1CC1 (centres unmarked) [Example 678, N-(3-{6-Amino-8-[(6-bromo-1,3-benzodioxol-5-yl)thio]-9H-purin-9-yl}-1-cyclopropylpropyl)-N′-isopropylurea]",*Fluorescent
